Key:
MV4;11 xenograph = MV4;11 xenograph model; type: in vivo
Procedure: (§1) Representative Compounds of the Disclosure were tested in the RS4;11 and other xenograph models using similar techniques. […] No. 22 in the MDA-MB-231 TNBC model.

MOLM-13 = test: CellTiter-Glo cell growth inhibition, MOLM-13; type: cell-based; conditions: Homo sapiens, MOLM-13, 96 h, 4 days, Table 4, read-out: MOLM-13 IC50
Procedure: (§2) Cell growth inhibitory activity of representative Compounds of the Disclosure was determined using the CellTiter-Glo® Luminescent Cell Viability Assay. Cells were seeded in 384-well white opaque cell culture plates at a density of 2,000 cells/well with serially diluted compounds and incubated at 37° C. in an atmosphere of 95% air and 5% CO2 for 4 days. Cell viability was determined using the CellTiter-Glo® Luminescent Cell Viability Assay Kit (Promega, Madison, Wis.) according to the manufacture's instruction. Briefly, a volume of CellTiter-Glo® Reagent equal to the volume of cell culture medium was added to each well, and then the plates were incubated at room temperature for 10-20 minutes. The luminescent signal was measured using a Tecan Infinite M1000 multimode microplate reader (Tecan, Morrisville, N.C.). The half maximal inhibitory concentration (IC50) was calculated using the GraphPad Prism 5 software (GraphPad Software, La Jolla, Calif.).
(§3) Cpd. Nos. 18 and 19 were tested in various leukemia cell lines using the CellTiter-Glo® Luminescent Cell Viability Assay as described in Example 35.

WHIM24 breast cancer PDX = WHIM24 breast cancer PDX model; type: in vivo; conditions: FIG. 10
Procedure: as §1

MDA-MB-231 TNBC = MDA-MB-231 TNBC model; type: in vivo; conditions: FIG. 12
Procedure: as §1

RS4;11 xenograph tumors = test: RS4;11 xenograft model; type: in vivo, SCID mice; conditions: for tumor regression in RS4;11 xenograph tumors: SCID mice
Procedure: Cpd. Nos. 7 and 11 were dissolved in 10% PCP [10% PEG400 (Sigma), 3% Cremophor (Sigma), and 87% PBS (Gibco)]. The pH of the drug solutions were checked before use and adjusted with 0.5N NaOH to be between pH 6.5 and 8.0 for IV (intravenous) administration.
RS4;11 cells were maintained at 37° C., 95% air, 5% carbon dioxide in Improved MEM (Richter's Mod.) supplemented with 10% Fetal Bovine Serum, 100 units/ml of penicillin and 100 units/ml of streptomycin (GIBCO™, Invitrogen Corp.) and passaged twice weekly.
Tumor cells for xenografts were harvested with Trypsin (0.05%)-EDTA (0.53 mM) (GIBCO™, Invitrogen Corp.), growth medium added and cells placed on ice. Cells were washed once with 1×PBS (GIBCO™, Invitrogen Corp.) and re-suspended in PBS. After washing in PBS, cells were re-suspended in an ice cold mixture of 1:1 PBS and Matrigel (BD Biosciences, Invitrogen Corp.) for a final Matrigel protein concentration of 5 mg/ml. Cells at 5×10^6 cells in 0.1 ml were injected subcutaneously (s.c.) into the flank region of each mouse using a 25 gauge needle. All tumors were inoculated into SCID mice (strain:236) C.B-17 SCID, Charles River.
The size of tumors growing in the mice was measured in two dimensions using calipers. Tumor volume (mm^3)═(A×B^2)/2 where A and B are the tumor length and width (in mm), respectively. During treatment, tumor volume and body weight were measured three times a week. After the treatment was stopped, tumor volume and body weight was measured at least once a week.
Tumors were not allowed to exceed 10% of the animals total body weight. If an animal had two or more tumors the total weight of all tumors were not allowed to exceed 10% of the animal's total body weight. At the end of the experimental period or when tumor size approached 10% of the total body weight, the animal was euthanized.
Before treatment began, tumors were allowed to grow to 100-200 mm^3 in volume, at which point the blood vessel supplies to the tumor should have been well established. Mice with tumors within acceptable size range were randomized into treatment groups of seven mice. Cpd. Nos. 7 and 11 were given i.v. at 10 mg/kg at days 1,3, and 5 per week for two weeks. The Control group received vehicle alone. Cpd. Nos. 16, 18, 22 and 48 were given i.v. at 5 mg/kg at days 1, 3, and 5 per week for two weeks. The Control group received vehicle alone.
as §1

MDA-MB-468 TNBC = MDA-MB-468 TNBC model; type: in vivo; conditions: FIG. 11
Procedure: as §1

MDA-MB-231 [1] = test: CellTiter-Glo cell growth inhibition, MDA-MB-231; type: cell-based; conditions: Homo sapiens, MDA-MB-231, 96 h, 4 days, Table 4
Procedure: as §2

RS4;11 = test: CellTiter-Glo cell growth inhibition, RS4;11; type: cell-based; conditions: Homo sapiens, RS4-11, 96 h, 4 days, Table 4, read-out: RS-4, 11 IC50
Procedure: as §2, §3

MDA-MB-157 = test: WST-8 cell growth inhibition assay, MDA-MB-157; type: cell-based; conditions: Homo sapiens, WST-8, Table 6
Procedure: (§4) Cpd. Nos. 7 and 18 were tested in various triple-negative breast cancer cell lines using the WST-8 cell growth assay.

HBL100 = test: WST-8 cell growth inhibition assay, HBL100; type: cell-based; conditions: Homo sapiens, HBL-100; WST-8, Table 6
Procedure: as §4

MDA-MB-453 = test: WST-8 cell growth inhibition assay, MDA-MB-453; type: cell-based; conditions: Homo sapiens, WST-8, Table 6
Procedure: as §4

MDA-MB-231 [2] = test: WST-8 cell growth inhibition assay, MDA-MB-231; type: cell-based; conditions: Homo sapiens, WST-8, Table 6
Procedure: as §4

MDA-MB-468 = test: WST-8 cell growth inhibition assay, MDA-MB-468; type: cell-based; conditions: Homo sapiens, WST-8, Table 6
Procedure: as §4

MDA-MB-474 = test: WST-8 cell growth inhibition assay, MDA-MB-474; type: cell-based; conditions: WST-8, Table 6
Procedure: as §4

MDA-MB-436 = test: WST-8 cell growth inhibition assay, MDA-MB-436; type: cell-based; conditions: Homo sapiens, WST-8, Table 6
Procedure: as §4

Compound: Cc1nnc2n1-c1sc(C#Cc3cnn(CCCC#Cc4cccc5c4CN(C4CCC(=O)NC4=O)C5=O)c3)c(Cc3ccccc3)c1COC2 (stereo not shown) [Cpd. No. 22, 3-(4-(5-(4-((3-benzyl-9-methyl-4H,6H-thieno[2,3-e][1,2,4]triazolo[3,4-c][1,4]oxazepin-2-yl)ethynyl)-1H-pyrazol-1-yl)pent-1-yn-1-yl)-1-oxoisoindolin-2-yl)piperidine-2,6-dione]
- tumor regression in the MV4;11 xenograph model (MV4;11 xenograph; FIG. 8): induces tumor regression
- tumor regression in the MV4;11 xenograph model (MV4;11 xenograph; FIG. 9): induce tumor regression
- IC50 (MOLM-13): 0.85 nM
- tumor regression in the WHIM24 breast cancer PDX model (WHIM24 breast cancer PDX): induces tumor regression
- tumor regression in the MDA-MB-231 TNBC model (MDA-MB-231 TNBC): induces tumor regression
- tumor regression in RS4;11 xenograph tumors (RS4;11 xenograph tumors; i.v. 5 mg/kg at days 1, 3, 5 per week for two weeks, FIG. 4): induce tumor regression
- tumor regression in the RS4;11 xenograph model (RS4;11 xenograph tumors; every other day dosing schedule, FIG. 6): induces tumor regression
- tumor regression in the RS4;11 xenograph model (RS4;11 xenograph tumors; single dose or weekly dosing schedule, FIG. 7): induces tumor regression
- tumor regression in the MDA-MB-468 TNBC model (MDA-MB-468 TNBC): induces tumor regression
- IC50 (MDA-MB-231 [1]): < 0.015 nM
- IC50 (RS4;11): 0.11 nM

Compound: Cc1nnc2n1-c1sc(C#Cc3cnn(CCCCNc4cccc5c4C(=O)N(C4CCC(=O)NC4=O)C5=O)c3)c(Cc3ccccc3)c1CO[C@H]2C (stereo partly drawn) [Cpd. No. 7, 4-((4-(4-(((S)-3-benzyl-6,9-dimethyl-4H,6H-thieno[2,3-e][1,2,4]triazolo[3,4-c][1,4]oxazepin-2-yl)ethynyl)-1H-pyrazol-1-yl)butyl)amino)-2-(2,6-dioxopiperidin-3-yl)isoindoline-1,3-dione]
- IC50 (MDA-MB-157): 0.29 ± 0.02 nM
- IC50 (MOLM-13): 0.7 nM
- IC50 (HBL100): 1.7 ± 0.15 nM
- tumor regression in RS4;11 xenograph tumors (RS4;11 xenograph tumors; i.v. 10 mg/kg at days 1, 3, 5 per week for two weeks, FIG. 3): induce tumor regression
- IC50 (MDA-MB-453): 1.02 ± 0.03 nM
- IC50 (MDA-MB-231 [2]): 1.2 ± 0.13 nM
- IC50 (MDA-MB-468): 2.46 ± 0.07 nM
- IC50 (MDA-MB-474): 1.09 ± 0.06 nM
- IC50 (MDA-MB-436): 2.24 ± 0.3 nM
- IC50 (MDA-MB-231 [1]): 0.8 nM
- IC50 (RS4;11): 0.03 nM

Source: patent US11466028B2, “Fused 1,4-oxazepines as BET protein degraders” (THE REGENTS OF THE UNIVERSITY OF MICHIGAN, priority 2016, dated 2022)
